Assay results as given in the C3SDB collision cross section collection.

Experiments:
[1] = instrument: DT, stepped-field
[2] = instrument: DT, single field, calibrated with Agilent tune mix (Agilent)

| Compound | collision cross section (N2) ([1]; [M+H]+) [Å²] | collision cross section (N2) ([1]; [M+Na]+) [Å²] | further results |
| --- | --- | --- | --- |
| Nc1c(O)cccc1C(=O)CC(N)C(=O)O (racemic) [3-Hydroxy-DL-kynurenine] | 157.67 | 160.83 | – |
| OC[C@H]1O[C@@](CO)(OC[C@@]2(O[C@H]3O[C@H](CO)[C@@H](O)[C@H](O)[C@H]3O)O[C@H](CO)[C@@H](O)[C@@H]2O)[C@@H](O)[C@@H]1O [1-Kestose] | – | 205.43 | – |
| Nc1nc(=O)c2ncn([C@H]3C[C@H](O)[C@@H](COP(=O)(O)O)O3)c2[nH]1 [2'-Deoxyguanosine 5'-Monophosphate] | 178.96 | 173.87 | – |
| NCCP(=O)(O)O [2-Aminoethylphosphonate] | 132.21 | – | – |
| Cc1ccc2cc3ccccc3cc2c1 [2-Methylanthracene] | 138.61 | – | – |
| Cc1ccc2ccccc2c1 [2-methylnaphthalene] | 124.57 | – | – |
| Cn1cncc1C[C@H](N)C(=O)O [3-Methyl-L-histidine] | 136.57 | – | – |
| Cc1ncsc1CCO [4-Methyl-5-Thiazolethanol] | 145.34 | – | – |
| CCCCC/C=C/C/C=C\C[C@@H]1O[C@@H]1C/C=C\CCCC(=O)O [8(9)-EET] | – | 186.83 | – |
| CCCCC/C=C\C/C=C\C=C\[C@@H](O)C/C=C\CCCC(=O)O [8S-HETE] | – | 187.17 | – |
| CCCCC/C=C\C=C\C(=O)CCCCCCCC(=O)O [9-OxoODE] | 184.2 | 199.5 | – |
| CCCCC/C=C\C[C@H]1O[C@H]1C/C=C\C/C=C\CCCC(=O)O [11(12)-EET] | – | 187.87 | – |
| CCCCC/C=C\C[C@H](O)/C=C/C=C\C/C=C\CCCC(=O)O [12S-HETE] | – | 193.33 | – |
| COc1ccc(-c2cc(=O)c3c(O)cc(O)cc3o2)cc1 [Acacetin] | 167.06 | – | – |
| O=C1C(=O)c2cccc3cccc1c23 [Acenaphthenequinone] | 145.51 | – | – |
| C1=Cc2cccc3cccc1c23 [Acenaphthylene] | 125.71 | – | – |
| CCCCC/C=C\C/C=C\C/C=C\C/C=C\CCCCCC(=O)O [Adrenic Acid] | 189.41 | 192.83 | – |
| CC1(C)S[C@@H]2[C@H](NC(=O)[C@H](N)c3ccccc3)C(=O)N2[C@H]1C(=O)O [Ampicillin] | 193.17 | 187.93 | – |
| c1cncc(C2CCCCN2)c1 (stereo unspecified) [Anabasine] | 140.18 | – | – |
| NC(=NCCC[C@H](N)C(=O)O)N[C@@H](CC(=O)O)C(=O)O [Argininosuccinic Acid] | 167.39 | 172.22 | – |
| CCNc1nc(Cl)nc(NC(C)C)n1 [Atrazine] | 150.74 | – | – |
| C1=Cc2c3ccc4ccccc4c3cc3cccc1c23 [Benz(j)aceanthrylene] | 155.08 | – | – |
| c1ccc2c(c1)cc1ccc3cccc4ccc2c1c34 [Benzo(a)Pyrene] | 152.05 | – | – |
| CCCCC/C=C\C/C=C\C/C=C\CCCCCCC(=O)O [Bishomo-gamma-linolenic Acid] | – | 183.38 | – |
| CC12CCC(CC1=O)C2(C)C (stereo unspecified) [Camphor] | 142.8 | – | – |
| NCCC(=O)N[C@@H](Cc1cnc[nH]1)C(=O)O [Carnosine] | 152.18 | – | – |
| OC[C@H]1O[C@@H](O[C@H]2[C@H](O)[C@@H](O)[C@H](O[C@H]3[C@H](O)[C@@H](O)[C@H](O[C@H]4[C@H](O)[C@@H](O)C(O)O[C@@H]4CO)O[C@@H]3CO)O[C@@H]2CO)[C@H](O)[C@@H](O)[C@@H]1O (stereo partly specified) [Cellotetraose] | – | 225 | – |

| Compound | collision cross section (N2) ([1]; [M+H]+) [Å²] | collision cross section (N2) ([1]; [M+Na]+) [Å²] | further results |
| --- | --- | --- | --- |
| O=C(O)CC(O)(CC(=O)O)C(=O)O [Citric Acid] | 148.9 | 146.11 | – |
| Oc1cc(O)c2cc(O)c(-c3ccc(O)c(O)c3)[o+]c2c1 [Cyanidin] | – | – | collision cross section (N2) ([1]; [M]+): 168.33 Å² |
| OC[C@H]1O[C@H](O[C@H]2[C@H](O)[C@H](O)COC2(O)CO)[C@H](O)[C@@H](O)[C@@H]1O (stereo partly drawn) [D-(+)-Turanose] | – | 177 | – |
| OC[C@H]1OC(O)[C@H](O)[C@@H](O)[C@H]1O (stereo partly drawn) [D-Galactose] | – | 142.39 | – |
| OC[C@H]1OC(O)[C@H](O)[C@@H](O)[C@@H]1O (stereo partly drawn) [D-Glucose] | – | 147.72 | – |
| O=C(O)[C@H]1OC(O)[C@H](O)[C@@H](O)[C@@H]1O (stereo partly drawn) [D-Glucuronate] | – | 153.13 | – |
| O=C[C@H](O)COP(=O)(O)O [D-Glyceraldehyde 3-Phosphate] | 135.86 | – | – |
| O=P(O)(O)OC[C@H]1OC(O)[C@H](O)[C@@H]1O (stereo partly drawn) [D-Ribose 5-Phosphate] | – | 155.8 | – |
| O=C(CO)[C@H](O)[C@H](O)COP(=O)(O)O [D-Ribulose 5-Phosphate] | – | 153.25 | – |
| O=C[C@H](O)[C@@H](O)[C@H](O)COP(=O)(O)O [D-Xylose 5-phosphate] | – | 151.4 | – |
| O=C(CO)[C@@H](O)[C@H](O)CO [D-Xylulose] | – | 141.76 | – |
| Nc1nc(=O)c2c([nH]1)NCC(CNc1ccc(C(=O)N[C@@H](CCC(=O)O)C(=O)O)cc1)=N2 [Dihydrofolate] | 193.63 | – | – |
| N#Cc1c[nH]cc1-c1cccc2c1OC(F)(F)O2 [Fludioxonil] | – | 165.7 | – |
| CN(C)C(=O)Nc1cccc(C(F)(F)F)c1 [Fluometuron] | 152.2 | 161.2 | – |
| CCCCCCCC/C=C\CCCCCCCCCC(=O)O[C@H](COC(=O)CCCCCCCCCCCCCC)COP(=O)(O)O[C@H]1C(O)C(O)C(O)[C@@H](O)C1O (stereo partly specified) [PI(35:1)] | – | – | collision cross section (N2) ([2]; [M+NH4]+): 298.1 Å²; collision cross section (N2) ([2]; [M-H]-): 286.9 Å² |
| CCCCC/C=C\C/C=C\CCCCCCCCCCCC(=O)O[C@H](COC(=O)CCCCCCCCCCCC)COP(=O)(O)O[C@H]1C(O)C(O)C(O)[C@@H](O)C1O (stereo partly specified) [PI(35:2)] | – | – | collision cross section (N2) ([2]; [M+NH4]+): 295.6 Å²; collision cross section (N2) ([2]; [M-H]-): 285.3 Å² |
| CCCCC/C=C\C/C=C\CCCCCCCCCCCC(=O)O[C@H](COC(=O)CCCCCCC/C=C\CCCCC)COP(=O)(O)O[C@H]1C(O)C(O)C(O)[C@@H](O)C1O (stereo partly specified) [PI(37:3)] | – | – | collision cross section (N2) ([2]; [M+NH4]+): 301.4 Å²; collision cross section (N2) ([2]; [M+Na]+): 298.9 Å²; collision cross section (N2) ([2]; [M-H]-): 290.1 Å² |
| CC/C=C\C/C=C\C/C=C\C/C=C\CCCCC(=O)OC[C@H](COP(=O)(O)O[C@H]1C(O)C(O)C(O)[C@@H](O)C1O)OC(=O)CCCCCCCCCCCCCCCCCC (stereo partly specified) [PI(37:4)] | – | – | collision cross section (N2) ([2]; [M+H]+): 298.9 Å²; collision cross section (N2) ([2]; [M+NH4]+): 300.2 Å²; collision cross section (N2) ([2]; [M+Na]+): 297.6 Å² |
| CCCCCC/C=C\CCCCCCCC(=O)OC[C@H](COP(=O)(O)O[C@H]1C(O)C(O)C(O)[C@@H](O)C1O)OC(=O)CCCCCCCCCCCCCCCCCCCCC (stereo partly specified) [PI(38:1)] | – | – | collision cross section (N2) ([2]; [M-H]-): 296.1 Å² |
| CCCCCCCC/C=C\CCCCCCCCCC(=O)O[C@H](COC(=O)CCCCCCCCCCCCC)COP(=O)(O)OC[C@H](N)C(=O)O [PS(34:1)] | – | – | collision cross section (N2) ([2]; [M+H]+): 280 Å²; collision cross section (N2) ([2]; [M-H]-): 273.1 Å² |
| CCCCCCCCCCCCC=CC[C@@H](O)[C@H](COP(=O)([O-])OCC[N+](C)(C)C)NC(=O)CCCCCCCCCCCCCC [SM(33:1)] | – | – | collision cross section (N2) ([2]; [M+H]+): 279.2 Å² |
| CCCCCCCCCCCCCCCC(=O)N[C@@H](COP(=O)([O-])OCC[N+](C)(C)C)[C@H](O)CCCCCCCCCCCCCCC [SM(34:0)] | – | – | collision cross section (N2) ([2]; [M+HCOO]-): 282.3 Å²; collision cross section (N2) ([2]; [M+H]+): 285 Å²; collision cross section (N2) ([2]; [M+Na]+): 284.8 Å² |
| CCCCCCCCCCCCC=CCC(=O)N[C@@H](COP(=O)([O-])OCC[N+](C)(C)C)[C@H](O)CC=CCCCCCCCCCCCC [SM(34:2)] | – | – | collision cross section (N2) ([2]; [M+H]+): 281.4 Å² |
| CCCCC/C=C\C/C=C\C/C=C\C/C=C\CCCCCC(=O)OC[C@@H](COC(=O)CCCCCCCCCCCCCCC)OC(=O)CCCCCCC/C=C\CCCCCCC [TG(55:5)] | – | – | collision cross section (N2) ([2]; [M+NH4]+): 324.6 Å² |
| CCCCC/C=C\C/C=C\C/C=C\CCCCCCC(=O)O[C@H](COC(=O)CCCC/C=C\C/C=C\C/C=C\CCCCC)COC(=O)CCCCCCCCC/C=C\CCCCCCCCCC [TG(60:7)] | – | – | collision cross section (N2) ([2]; [M+NH4]+): 339 Å² |
| CC/C=C\C/C=C\C/C=C\C/C=C\C/C=C\CCCC(=O)O[C@H](COC(=O)CCCCCCC/C=C\C/C=C\C/C=C\CC)COC(=O)CCCCCCCCC/C=C\CCCCCCCCCC [TG(60:9)] | – | – | collision cross section (N2) ([2]; [M+NH4]+): 336 Å² |
| CC/C=C\C/C=C\C/C=C\C/C=C\C/C=C\C/C=C\CCC(=O)OC[C@@H](COC(=O)CCCCCCC/C=C\C/C=C\C/C=C\CC)OC(=O)CCCCCCCC/C=C\C/C=C\C/C=C\CCCCC [TG(62:12)] | – | – | collision cross section (N2) ([2]; [M+NH4]+): 337.5 Å² |
